From US20250101436A1, “APTAMERS AND SMALL MOLECULE LIGANDS” (MeiraGTx UK II Limited, priority 2021, published 2025)

System: luciferase gene expression in HEK 293 cells in response to Comp. 004
Assay: Screen of riboswitch constructs with 12C6-1 variant aptamers (libraries N1-N5) against Comp. 004, luciferase in HEK 293 cells
Assay type: cell-based, human
Details: library N1 (J2-4), HEK 293, 25 M [sic] Comp. 004
Description: Cloning of riboswitch constructs containing 12C6-1 variant aptamer sequences: 12C6-1 aptamer sequence was used as template, and nucleobases were randomized at certain position in the sequence. Aptamers incorporating random mutagenesis were synthesized by Integrated DNA Technologies, Inc. Golden Gate cloning strategy (New England Biolabs, NEB) was used to clone the synthesized aptamer sequences into intron-exon-intron cassette to replace the 12C6-1 aptamer in the Luci-12C6-1 riboswitch construct, generating riboswitch constructs containing variant aptamer sequences.
To further improve the riboswitch activity in responding to Comp. 004 and related compounds, the aptamer sequence 12C6-1 was subject to mutagenesis to generate aptamer variants, and the riboswitches containing the variant aptamers were screened against Comp. 004 for the ones that have improved dynamic range of induced gene expression (the fold induction), in comparison with the fold induction by parental riboswitch construct Luci-12C6-1. […] These loop or junction region alone or together with stem region in proximity were chosen for random mutagenesis to generate riboswitches with re-engineered aptamer sequences with improved activity.
Five aptamer libraries N1, N2, N3, N4 and N5 were generated by randomizing nucleotides at positions in J2-4, J2-3/J3-3a/J3a-2/P3, L3a, J4-5/J5-4/P4 and L5 regions of the parent 12C6-1 sequence, respectively (see FIGS. 3a and 3b). Single bacterial colonies were picked and plasmids containing variant riboswitch constructs were screened in HEK 293 cells for improved gene regulation activity in response to 25 µM Comp. 004 as compared to parent riboswitch construct Luci-12C6-1.

Q: How did the “Fold (induction of luciferase gene expression)” value (shortened to “Fold”) turn out when “N1_2G9 (CTGGGGAGTCCTTCATGCGGGGC; chemistry not given here)” was run?
A: 30.93 fold

Q: “N1_2H11 (CTGGGGAGTCCTTCATGCGGGGC; chemistry not given here)” was tested. Which “Fold” value did it give?
A: 2.83 fold

Q: “N1_2H1 (CTGGGGAGTCCTTCATGCGGGGC; chemistry not given here)” was tested. Which “Fold” value did it give?
A: 9.41 fold

Q: How did the “Fold” value turn out when “N1_2H8 (CTGGGGAGTCCTTCATGCGGGGC; chemistry not given here)” was run?
A: 1.45 fold

Q: “N1_2F10 (CTGGGGAGTCCTTCATGCGGGGC; chemistry not given here)” was tested. Which “Fold” value did it give?
A: 10.84 fold

Q: Which “Fold” value does the source give for “N1_2F6 (CTGGGGAGTCCTTCATGCGGGGC; chemistry not given here)” here?
A: 185.92 fold

Q: For “N1_2E6 (CTGGGGAGTCCTTCATGCGGGGC; chemistry not given here)”, which “Fold” value is on record?
A: 30.39 fold

Same assay, conditions: library N2 variant aptamers (J2-3, P3-J3-3a, J3a-2 randomized) of 12C6-1 in riboswitch constructs; in response to Comp. 004; HEK 293 cells

Q: How did the “Fold” value turn out when “N2_2C4 (CTGGGGAGTCCTTCATGC; chemistry not given here)” was run?
A: 2.0 fold

Q: “N2_2B7 (CTGGGGAGTCCTTCATGC; chemistry not given here)” was tested. Which “Fold” value did it give?
A: 1.2 fold

Q: “N2_2G1 (DNA CTGGGGAGTCCTTCATGC; chemistry not given here)” was tested. Which “Fold” value did it give?
A: 1.7 fold

Q: How did the “Fold” value turn out when “N2_2F12 (DNA CTGGGGAGTCCTTCATGC; chemistry not given here)” was run?
A: 1.0 fold

Q: For “N2_2A10 (CTGGGGAGTCCTTCATGC; chemistry not given here)”, which “Fold” value is on record?
A: 1.1 fold

Q: How did the “Fold” value turn out when “N2_2B6 (CTGGGGAGTCCTTCATGC; chemistry not given here)” was run?
A: 0.8 fold

Q: “N2_2D6 (DNA CTGGGGAGTCCTTCATGC; chemistry not given here)” was tested. Which “Fold” value did it give?
A: 1.1 fold

Q: With “N2_2C10 (CTGGGGAGTCCTTCATGC; chemistry not given here)” as the substance, how does the “Fold” value read?
A: 1.2 fold

Q: Which “Fold” value does the source give for “N2_2C12 (CTGGGGAGTCCTTCATGC; chemistry not given here)” here?
A: 1.1 fold

Q: How did the “Fold” value turn out when “N2_2C7 (CTGGGGAGTCCTTCATGC; chemistry not given here)” was run?
A: 0.8 fold

Q: How did the “Fold” value turn out when “N2_2H4 (CTGGGGAGTCCTTCATGC; chemistry not given here)” was run?
A: 1.0 fold

Q: How did the “Fold” value turn out when “N2_2H9 (CTGGGGAGTCCTTCATGC; chemistry not given here)” was run?
A: 0.9 fold

Q: For “N2_2A5 (CTGGGGAGTCCTTCATGC; chemistry not given here)”, which “Fold” value is on record?
A: 1.0 fold

Q: With “N2_2A3 (CTGGGGAGTCCTTCATGC; chemistry not given here)” as the substance, how does the “Fold” value read?
A: 0.8 fold

Q: Which “Fold” value does the source give for “N2_2A11 (CTGGGGAGTCCTTCATGC; chemistry not given here)” here?
A: 1.1 fold

Q: How did the “Fold” value turn out when “N2_2D4 (DNA CTGGGGAGTCCTTCATGC; chemistry not given here)” was run?
A: 0.8 fold

Q: With “N2_2A1 (CTGGGGAGTCCTTCATGC; chemistry not given here)” as the substance, how does the “Fold” value read?
A: 1.0 fold

Q: How did the “Fold” value turn out when “N2_2B12 (CTGGGGAGTCCTTCATGC; chemistry not given here)” was run?
A: 1.0 fold

Q: With “N2_2A2 (CTGGGGAGTCCTTCATGC; chemistry not given here)” as the substance, how does the “Fold” value read?
A: 0.7 fold

Q: “N2_2E5 (DNA CTGGGGAGTCCTTCATGC; chemistry not given here)” was tested. Which “Fold” value did it give?
A: 1.2 fold

Q: With “N2_2F1 (DNA CTGGGGAGTCCTTCATGC; chemistry not given here)” as the substance, how does the “Fold” value read?
A: 1.1 fold

Q: How did the “Fold” value turn out when “N2_2E6 (DNA CTGGGGAGTCCTTCATGC; chemistry not given here)” was run?
A: 0.9 fold

Same assay, conditions: library N5 variant aptamers (L5, X16-X21 randomized) of 12C6-1 in riboswitch constructs; in response to Comp. 004 treatment; HEK 293 cells

Q: How did the “Fold” value turn out when “N5_1F10 (CTGGGGAGTCCT; chemistry not given here)” was run?
A: 1071.3 fold

Q: For “N5_1G11 (CTGGGGAGTCCT; chemistry not given here)”, which “Fold” value is on record?
A: 789.0 fold

Q: How did the “Fold” value turn out when “N5_1H3 (CTGGGGAGTCCT; chemistry not given here)” was run?
A: 764.7 fold

Q: With “N5_7H9 (DNA CTGGGGAGTCCT; chemistry not given here)” as the substance, how does the “Fold” value read?
A: 860.0 fold

Q: For “N5_4H7 (CTGGGGAGTCCT; chemistry not given here)”, which “Fold” value is on record?
A: 714.3 fold

Q: How did the “Fold” value turn out when “N5_1F6 (CTGGGGAGTCCT; chemistry not given here)” was run?
A: 247.6 fold

Q: “N5_1A7 (CTGGGGAGTCCT; chemistry not given here)” was tested. Which “Fold” value did it give?
A: 659.9 fold

Q: For “N5_7A11 (CTGGGGAGTCCT; chemistry not given here)”, which “Fold” value is on record?
A: 941.2 fold

Q: For “N5_7C4 (DNA CTGGGGAGTCCT; chemistry not given here)”, which “Fold” value is on record?
A: 1363.2 fold

Q: For “N5_8A9 (DNA CTGGGGAGTCCT; chemistry not given here)”, which “Fold” value is on record?
A: 1090.4 fold

Q: With “N5_7G1 (DNA CTGGGGAGTCCT; chemistry not given here)” as the substance, how does the “Fold” value read?
A: 935.4 fold

Q: Which “Fold” value does the source give for “N5_5C4 (CTGGGGAGTCCT; chemistry not given here)” here?
A: 1235.2 fold

Q: “N5_1E12 (CTGGGGAGTCCT; chemistry not given here)” was tested. Which “Fold” value did it give?
A: 1588.2 fold

Q: “N5_5D7 (CTGGGGAGTCCT; chemistry not given here)” was tested. Which “Fold” value did it give?
A: 769.4 fold

Q: Which “Fold” value does the source give for “N5_1B10 (CTGGGGAGTCCT; chemistry not given here)” here?
A: 1013.6 fold

Q: For “N5_3C10 (CTGGGGAGTCCT; chemistry not given here)”, which “Fold” value is on record?
A: 751.6 fold

Q: For “N5_6E6 (CTGGGGAGTCCT; chemistry not given here)”, which “Fold” value is on record?
A: 1032.8 fold

Q: For “N5_11F4 (CTGGGGAGTCCT; chemistry not given here)”, which “Fold” value is on record?
A: 1230.1 fold

Q: How did the “Fold” value turn out when “N5_7A7 (CTGGGGAGTCCT; chemistry not given here)” was run?
A: 1226.2 fold

Q: For “N5_7B8 (CTGGGGAGTCCT; chemistry not given here)”, which “Fold” value is on record?
A: 693.7 fold

Q: How did the “Fold” value turn out when “N5_7F2 (DNA CTGGGGAGTCCT; chemistry not given here)” was run?
A: 937.4 fold

Q: Which “Fold” value does the source give for “N5_12E5 (CTGGGGAGTCCT; chemistry not given here)” here?
A: 1898.6 fold

Q: How did the “Fold” value turn out when “N5_12F11 (CTGGGGAGTCCT; chemistry not given here)” was run?
A: 926.7 fold

Q: Which “Fold” value does the source give for “N5_7G12 (DNA CTGGGGAGTCCT; chemistry not given here)” here?
A: 894.6 fold

Q: Which “Fold” value does the source give for “N5_7G7 (DNA CTGGGGAGTCCT; chemistry not given here)” here?
A: 952.9 fold

Q: “N5_1H1 (CTGGGGAGTCCT; chemistry not given here)” was tested. Which “Fold” value did it give?
A: 84.1 fold

Q: Which “Fold” value does the source give for “N5_8F1 (DNA CTGGGGAGTCCT; chemistry not given here)” here?
A: 951.8 fold

Q: How did the “Fold” value turn out when “N5_6F6 (CTGGGGAGTCCT; chemistry not given here)” was run?
A: 953.0 fold

Q: How did the “Fold” value turn out when “N5_1G5 (CTGGGGAGTCCT; chemistry not given here)” was run?
A: 804.6 fold

Q: For “N5_1D2 (CTGGGGAGTCCT; chemistry not given here)”, which “Fold” value is on record?
A: 561.3 fold

Q: For “N5_1G9 (CTGGGGAGTCCT; chemistry not given here)”, which “Fold” value is on record?
A: 1230.3 fold

Q: For “N5_12F4 (CTGGGGAGTCCT; chemistry not given here)”, which “Fold” value is on record?
A: 2096.2 fold

Q: With “N5_3F9 (CTGGGGAGTCCT; chemistry not given here)” as the substance, how does the “Fold” value read?
A: 909.7 fold

Q: “N5_1B2 (CTGGGGAGTCCT; chemistry not given here)” was tested. Which “Fold” value did it give?
A: 747.7 fold

Q: How did the “Fold” value turn out when “N5_7F4 (DNA CTGGGGAGTCCT; chemistry not given here)” was run?
A: 1239.0 fold

Q: With “N5_11G11 (CTGGGGAGTCCT; chemistry not given here)” as the substance, how does the “Fold” value read?
A: 1186.4 fold

Q: How did the “Fold” value turn out when “N5_1B3 (CTGGGGAGTCCT; chemistry not given here)” was run?
A: 792.0 fold

Q: For “N5_1H7 (CTGGGGAGTCCT; chemistry not given here)”, which “Fold” value is on record?
A: 1032.1 fold

Q: With “N5_7G3 (DNA CTGGGGAGTCCT; chemistry not given here)” as the substance, how does the “Fold” value read?
A: 799.3 fold

Q: “N5_1C3 (CTGGGGAGTCCT; chemistry not given here)” was tested. Which “Fold” value did it give?
A: 664.1 fold

Q: With “N5_8G9 (DNA CTGGGGAGTCCT; chemistry not given here)” as the substance, how does the “Fold” value read?
A: 1066.5 fold
